The text below walks through data of PubChem BioAssay AID720604 (Broad Institute, 2013).

As usually defined, the AC50 is the midpoint of the concentration-response curve, whichever way the signal moves. Read a low AC50 as activity at low concentration.

SMILES strings stand for the structures. Inconclusive results are not listed.

This assay has as its system HUVEC viability, CellTiter-Glo ATP luminescence, 8-48 h. Nature of the assay: HUVEC endothelial cell viability loss, dose response, cytotoxicity control for HRAS target identification, CellTiter-Glo ATP luminescence, 8/24/48 h, dry powder (AID 720604). In general terms: Cellular ATP, detected with luciferase, serves as a proxy for viable cell number.

In turn, `COc1ccc(N(C(=O)CCl)C(C(=O)NCCc2ccccc2)c2cccs2)cc1Cl` (stereo not given) displayed an AC50 (measured here: 8 h treatment) of 25.4 µM, an AC50 (measured here: 24 h treatment) of 5.53 µM and an AC50 (measured here: 48 h treatment) of 5.1 µM.

`CC(C)(C)OC(=O)NCCOCCOCCOc1ccc(N(C(=O)CCl)C(C(=O)NCCc2ccccc2)c2cccs2)cc1Cl` (stereo not given) gave an AC50 (measured here: 24 h treatment) of 7.15 µM and an AC50 (measured here: 48 h treatment) of 7.2 µM.
